Non-standard residues stand in square brackets, D forms with d. Residues, ends and D or L forms follow the SMILES beside them. Groups on a side chain read outwards from the residue. *: point of attachment. Phe(4-Cl) = N[C@@H](Cc1ccc(Cl)cc1)C(=O)O; Phe(4-F) = N[C@@H](Cc1ccc(F)cc1)C(=O)O; NEt2 = CCN(CC)*
System: HeLa
Assay: Antitumor activity against human HeLa cells
Type: functional, cell-based

Row | SMILES | IC50 [µg/mL]
1 | CCN(CC)C(=O)[C@H](Cc1ccc(Cl)cc1)NC(=O)[C@H](CC(C)C)NC(=O)[C@@H](NC(=O)[C@@H](N)COC(=O)[C@@H]1CCCN1C(C)=O)C(C)C (H-S([Pro-Ac])VL[Phe(4-Cl)]-NEt2) | > 50
2 | CCN(CC)C(=O)[C@H](Cc1ccc(F)cc1)NC(=O)[C@H](CC(C)C)NC(=O)[C@@H](NC(=O)[C@@H](N)COC(=O)[C@@H]1CCCN1C(C)=O)C(C)C (H-S([Pro-Ac])VL[Phe(4-F)]-NEt2) | > 50

System: MDA-MB-231
Assay: Antitumor activity against human MDA-MB-231 cells
Type: functional, cell-based

Row | SMILES | IC50 [µg/mL]
3 | CCN(CC)C(=O)[C@H](Cc1ccc(Cl)cc1)NC(=O)[C@H](CC(C)C)NC(=O)[C@@H](NC(=O)[C@@H](N)COC(=O)[C@@H]1CCCN1C(C)=O)C(C)C (H-S([Pro-Ac])VL[Phe(4-Cl)]-NEt2) | > 50
4 | CCN(CC)C(=O)[C@H](Cc1ccc(F)cc1)NC(=O)[C@H](CC(C)C)NC(=O)[C@@H](NC(=O)[C@@H](N)COC(=O)[C@@H]1CCCN1C(C)=O)C(C)C (H-S([Pro-Ac])VL[Phe(4-F)]-NEt2) | > 50

System: not listed separately
Assay: Inhibition of IMPDH (unknown origin)
Parameters: species or system Homo sapiens

Row | SMILES | IC50 [µg/mL]
5 | CCN(CC)C(=O)[C@H](Cc1ccc(Cl)cc1)NC(=O)[C@H](CC(C)C)NC(=O)[C@@H](NC(=O)[C@@H](N)COC(=O)[C@@H]1CCCN1C(C)=O)C(C)C (H-S([Pro-Ac])VL[Phe(4-Cl)]-NEt2) | > 100
6 | CCN(CC)C(=O)[C@H](Cc1ccc(F)cc1)NC(=O)[C@H](CC(C)C)NC(=O)[C@@H](NC(=O)[C@@H](N)COC(=O)[C@@H]1CCCN1C(C)=O)C(C)C (H-S([Pro-Ac])VL[Phe(4-F)]-NEt2) | > 100

Target: Acetylcholinesterase (Homo sapiens, UniProt P22303)
Assay: Inhibition of AchE (unknown origin)

Sequence of Acetylcholinesterase (P22303 whole entry): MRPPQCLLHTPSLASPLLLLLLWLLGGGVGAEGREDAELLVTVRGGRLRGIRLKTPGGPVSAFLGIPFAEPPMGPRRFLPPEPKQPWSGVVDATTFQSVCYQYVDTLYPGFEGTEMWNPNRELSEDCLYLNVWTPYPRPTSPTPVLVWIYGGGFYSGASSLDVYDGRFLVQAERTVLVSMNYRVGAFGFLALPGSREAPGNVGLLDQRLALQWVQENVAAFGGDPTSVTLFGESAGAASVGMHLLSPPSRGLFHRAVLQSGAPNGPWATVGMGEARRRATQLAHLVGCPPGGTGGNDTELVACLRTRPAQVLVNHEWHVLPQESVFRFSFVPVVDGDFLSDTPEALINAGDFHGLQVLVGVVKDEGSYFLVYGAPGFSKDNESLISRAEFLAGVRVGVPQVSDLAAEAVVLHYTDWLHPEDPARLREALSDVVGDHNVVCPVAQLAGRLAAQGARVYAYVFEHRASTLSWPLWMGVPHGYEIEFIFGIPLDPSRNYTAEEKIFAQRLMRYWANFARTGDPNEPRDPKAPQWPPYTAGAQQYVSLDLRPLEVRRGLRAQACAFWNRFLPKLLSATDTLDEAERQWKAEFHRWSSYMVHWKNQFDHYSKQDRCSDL

Row | SMILES | IC50 [µM]
7 | CCN(CC)C(=O)[C@H](Cc1ccc(Cl)cc1)NC(=O)[C@H](CC(C)C)NC(=O)[C@@H](NC(=O)[C@@H](N)COC(=O)[C@@H]1CCCN1C(C)=O)C(C)C (H-S([Pro-Ac])VL[Phe(4-Cl)]-NEt2) | > 144
8 | CCN(CC)C(=O)[C@H](Cc1ccc(F)cc1)NC(=O)[C@H](CC(C)C)NC(=O)[C@@H](NC(=O)[C@@H](N)COC(=O)[C@@H]1CCCN1C(C)=O)C(C)C (H-S([Pro-Ac])VL[Phe(4-F)]-NEt2) | > 148

System: Proteasome
Assay: Inhibition of proteasome (unknown origin)
Type: subcellular, Homo sapiens

Row | SMILES | IC50 [µg/mL]
9 | CCN(CC)C(=O)[C@H](Cc1ccc(Cl)cc1)NC(=O)[C@H](CC(C)C)NC(=O)[C@@H](NC(=O)[C@@H](N)COC(=O)[C@@H]1CCCN1C(C)=O)C(C)C (H-S([Pro-Ac])VL[Phe(4-Cl)]-NEt2) | > 100
10 | CCN(CC)C(=O)[C@H](Cc1ccc(F)cc1)NC(=O)[C@H](CC(C)C)NC(=O)[C@@H](NC(=O)[C@@H](N)COC(=O)[C@@H]1CCCN1C(C)=O)C(C)C (H-S([Pro-Ac])VL[Phe(4-F)]-NEt2) | > 100

Target: T1, Monoglyceride lipase (Homo sapiens, UniProt Q99685)
T1 sequence (Q99685 whole entry): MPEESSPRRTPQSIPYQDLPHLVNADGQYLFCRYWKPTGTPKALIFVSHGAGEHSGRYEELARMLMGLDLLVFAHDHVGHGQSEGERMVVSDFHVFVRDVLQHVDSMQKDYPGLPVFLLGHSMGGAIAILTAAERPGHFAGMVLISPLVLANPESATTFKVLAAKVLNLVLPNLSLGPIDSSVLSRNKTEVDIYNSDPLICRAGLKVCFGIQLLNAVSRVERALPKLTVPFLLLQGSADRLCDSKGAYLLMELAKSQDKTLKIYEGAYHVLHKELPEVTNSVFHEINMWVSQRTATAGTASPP
Assay: Inhibition of MAGL (unknown origin)

Row | SMILES | IC50 [µM]
11 | CCN(CC)C(=O)[C@H](Cc1ccc(Cl)cc1)NC(=O)[C@H](CC(C)C)NC(=O)[C@@H](NC(=O)[C@@H](N)COC(=O)[C@@H]1CCCN1C(C)=O)C(C)C (H-S([Pro-Ac])VL[Phe(4-Cl)]-NEt2) | > 144
12 | CCN(CC)C(=O)[C@H](Cc1ccc(F)cc1)NC(=O)[C@H](CC(C)C)NC(=O)[C@@H](NC(=O)[C@@H](N)COC(=O)[C@@H]1CCCN1C(C)=O)C(C)C (H-S([Pro-Ac])VL[Phe(4-F)]-NEt2) | > 148

Target: Cathepsin B (Homo sapiens, UniProt P07858)
Assay: Inhibition of cathepsin B (unknown origin)

Row | SMILES | IC50 [µM]
13 | CCN(CC)C(=O)[C@H](Cc1ccc(Cl)cc1)NC(=O)[C@H](CC(C)C)NC(=O)[C@@H](NC(=O)[C@@H](N)COC(=O)[C@@H]1CCCN1C(C)=O)C(C)C (H-S([Pro-Ac])VL[Phe(4-Cl)]-NEt2) | > 144
14 | CCN(CC)C(=O)[C@H](Cc1ccc(F)cc1)NC(=O)[C@H](CC(C)C)NC(=O)[C@@H](NC(=O)[C@@H](N)COC(=O)[C@@H]1CCCN1C(C)=O)C(C)C (H-S([Pro-Ac])VL[Phe(4-F)]-NEt2) | > 148

Target: T2, Tyrosine-protein phosphatase non-receptor type 11 (Homo sapiens) (UniProt Q06124)
T2 sequence (whole entry): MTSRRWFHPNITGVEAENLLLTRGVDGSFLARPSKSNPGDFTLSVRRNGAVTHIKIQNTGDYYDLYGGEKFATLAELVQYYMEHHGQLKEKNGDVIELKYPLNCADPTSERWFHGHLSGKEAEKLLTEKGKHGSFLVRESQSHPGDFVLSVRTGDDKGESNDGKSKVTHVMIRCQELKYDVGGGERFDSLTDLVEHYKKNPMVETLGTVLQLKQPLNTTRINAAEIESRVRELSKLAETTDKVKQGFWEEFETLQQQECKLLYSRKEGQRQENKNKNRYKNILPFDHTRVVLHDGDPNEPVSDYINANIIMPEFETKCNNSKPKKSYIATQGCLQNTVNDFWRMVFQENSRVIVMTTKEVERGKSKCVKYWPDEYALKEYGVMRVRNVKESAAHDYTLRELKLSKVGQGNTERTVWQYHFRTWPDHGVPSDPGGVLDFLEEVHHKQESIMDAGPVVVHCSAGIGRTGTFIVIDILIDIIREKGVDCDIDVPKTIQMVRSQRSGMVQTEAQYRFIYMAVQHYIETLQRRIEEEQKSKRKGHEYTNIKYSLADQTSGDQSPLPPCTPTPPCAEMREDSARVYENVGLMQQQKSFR
Assay: Inhibition of SHP2 (unknown origin) at 100 uM

Row | SMILES | inhibition [%]
15 | CCN(CC)C(=O)[C@H](Cc1ccc(Cl)cc1)NC(=O)[C@H](CC(C)C)NC(=O)[C@@H](NC(=O)[C@@H](N)COC(=O)[C@@H]1CCCN1C(C)=O)C(C)C (H-S([Pro-Ac])VL[Phe(4-Cl)]-NEt2) | 88
16 | CCN(CC)C(=O)[C@H](Cc1ccc(F)cc1)NC(=O)[C@H](CC(C)C)NC(=O)[C@@H](NC(=O)[C@@H](N)COC(=O)[C@@H]1CCCN1C(C)=O)C(C)C (H-S([Pro-Ac])VL[Phe(4-F)]-NEt2) | 95

Target: T2, Tyrosine-protein phosphatase non-receptor type 11 (Homo sapiens)
Assay: Inhibition of SHP2 (unknown origin) at 50 uM

Row | SMILES | inhibition [%]
17 | CCN(CC)C(=O)[C@H](Cc1ccc(Cl)cc1)NC(=O)[C@H](CC(C)C)NC(=O)[C@@H](NC(=O)[C@@H](N)COC(=O)[C@@H]1CCCN1C(C)=O)C(C)C (H-S([Pro-Ac])VL[Phe(4-Cl)]-NEt2) | 46
18 | CCN(CC)C(=O)[C@H](Cc1ccc(F)cc1)NC(=O)[C@H](CC(C)C)NC(=O)[C@@H](NC(=O)[C@@H](N)COC(=O)[C@@H]1CCCN1C(C)=O)C(C)C (H-S([Pro-Ac])VL[Phe(4-F)]-NEt2) | 81

Target: T2, Tyrosine-protein phosphatase non-receptor type 11 (Homo sapiens)
Assay: Inhibition of SHP2 (unknown origin) at 20 uM

Row | SMILES | inhibition [%]
19 | CCN(CC)C(=O)[C@H](Cc1ccc(Cl)cc1)NC(=O)[C@H](CC(C)C)NC(=O)[C@@H](NC(=O)[C@@H](N)COC(=O)[C@@H]1CCCN1C(C)=O)C(C)C (H-S([Pro-Ac])VL[Phe(4-Cl)]-NEt2) | 37
20 | CCN(CC)C(=O)[C@H](Cc1ccc(F)cc1)NC(=O)[C@H](CC(C)C)NC(=O)[C@@H](NC(=O)[C@@H](N)COC(=O)[C@@H]1CCCN1C(C)=O)C(C)C (H-S([Pro-Ac])VL[Phe(4-F)]-NEt2) | 44

Target: T2, Tyrosine-protein phosphatase non-receptor type 11 (Homo sapiens)
Assay: Inhibition of SHP2 (unknown origin) at 25 uM

Row | SMILES | inhibition [%]
21 | CCN(CC)C(=O)[C@H](Cc1ccc(F)cc1)NC(=O)[C@H](CC(C)C)NC(=O)[C@@H](NC(=O)[C@@H](N)COC(=O)[C@@H]1CCCN1C(C)=O)C(C)C (H-S([Pro-Ac])VL[Phe(4-F)]-NEt2) | 47

Target: T2, Tyrosine-protein phosphatase non-receptor type 11 (Homo sapiens)
Assay: Inhibition of SHP2 (unknown origin) at 10 uM

Row | SMILES | inhibition [%]
22 | CCN(CC)C(=O)[C@H](Cc1ccc(F)cc1)NC(=O)[C@H](CC(C)C)NC(=O)[C@@H](NC(=O)[C@@H](N)COC(=O)[C@@H]1CCCN1C(C)=O)C(C)C (H-S([Pro-Ac])VL[Phe(4-F)]-NEt2) | 23

Target: T2, Tyrosine-protein phosphatase non-receptor type 11 (Homo sapiens)
Assay: Inhibition of SHP2 (unknown origin) at 5 uM

Row | SMILES | inhibition [%]
23 | CCN(CC)C(=O)[C@H](Cc1ccc(F)cc1)NC(=O)[C@H](CC(C)C)NC(=O)[C@@H](NC(=O)[C@@H](N)COC(=O)[C@@H]1CCCN1C(C)=O)C(C)C (H-S([Pro-Ac])VL[Phe(4-F)]-NEt2) | 18

Target: T3, Tyrosine-protein phosphatase non-receptor type 11 (Homo sapiens, UniProt Q06124)
T3 sequence (Q06124 whole entry): T2 sequence (whole entry)
Assay: Inhibition of SHP2 (unknown origin)

Row | SMILES | IC50 [µM]
24 | CCN(CC)C(=O)[C@H](Cc1ccc(F)cc1)NC(=O)[C@H](CC(C)C)NC(=O)[C@@H](NC(=O)[C@@H](N)COC(=O)[C@@H]1CCCN1C(C)=O)C(C)C (H-S([Pro-Ac])VL[Phe(4-F)]-NEt2) | 31.9
